Assay [1] has as its target T1, full-length NS3/NS4A-2 (HCV NS3 protease) (Hepatitis C virus genotype 1a, UniProt P27958).
T1 construct: Recombinant E. coli or Baculovirus full-length NS3 was diluted to 3.33 μM with assay buffer; made in house; host or cells: E. coli or baculovirus (BV) expression system
As to the kind of experiment: NS3-NS4 protease assay / NS3 inhibition assay (RETS1 substrate, fluorescence kinetic read). It counts as biochemical. The note with it: recombinant E. coli or Baculovirus full-length NS3 with NS4A-2; read-out: NS3-NS4 IC50. In outline: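 Ki values come from IC50 fits corrected via Ki=IC50/(1+[S]/Km), with Km 2.03 μM for E. coli and 1.74 μM for baculovirus full-length NS3. Enzyme (2 or 3 nM NS3, respectively, complexed with NS4A-2) sat with compound, top concentration 50 microM, for 10 min at room temperature. Cleavage of RETS1 (8 μM working solution) was then followed by fluorescence (335/495 nm) over 30 min.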

Assay [2] deals with HCV sub-genomic replicon in GS4.3 cells (HuH-7 hepatoma cells). In words: Quantitation by ELISA of Neomycin phosphotransferase II (NPTII) in the HCV sub-genomic replicon, GS4.3. It counts as cell-based, hepatitis C virus. The conditions noted are these: Hepatitis C virus, Huh-7; GS4.3 cells, 72 h incubation, NPTII ELISA; read-out: Replicon EC50. In outline:
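Replicon-bearing HuH-7 (GS4.3) cells were exposed to compounds for 72 h in G418-free medium, top final concentration 10 μM, 1% DMSO. Lysates went to an NPTII ELISA read at 450 nm. Signal was normalised to DMSO-treated wells and EC50 was derived by four-parameter curve fitting.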

23 compounds from patent US7829665B2 (priority 2005, dated 2010) can be followed below.

T1 sequence (P27958 1027-1657): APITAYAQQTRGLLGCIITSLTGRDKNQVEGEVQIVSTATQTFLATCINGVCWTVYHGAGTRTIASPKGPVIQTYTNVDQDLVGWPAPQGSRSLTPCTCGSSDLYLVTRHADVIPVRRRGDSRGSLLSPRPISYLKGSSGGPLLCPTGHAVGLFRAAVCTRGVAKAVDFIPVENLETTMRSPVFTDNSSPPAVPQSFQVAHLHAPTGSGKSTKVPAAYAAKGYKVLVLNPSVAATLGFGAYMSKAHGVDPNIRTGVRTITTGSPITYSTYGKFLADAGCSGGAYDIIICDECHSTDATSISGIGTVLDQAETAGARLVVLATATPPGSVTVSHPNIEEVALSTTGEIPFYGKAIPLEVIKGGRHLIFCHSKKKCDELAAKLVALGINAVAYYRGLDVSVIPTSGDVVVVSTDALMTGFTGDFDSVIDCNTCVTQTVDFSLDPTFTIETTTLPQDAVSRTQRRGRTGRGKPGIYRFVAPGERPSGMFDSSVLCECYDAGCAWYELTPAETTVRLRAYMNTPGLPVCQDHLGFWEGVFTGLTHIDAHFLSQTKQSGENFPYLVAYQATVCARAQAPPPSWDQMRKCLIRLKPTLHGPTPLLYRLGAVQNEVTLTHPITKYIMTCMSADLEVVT

As to `O=C1N[C@]2(C(=O)NS(=O)(=O)C3CC3)C[C@H]2/C=C\CCCCC[C@H](NCc2ccc(Cl)o2)C(=O)N2C[C@H](OC(=O)N3Cc4cccc(F)c4C3)C[C@@H]12` [Compound 914], the IC50 in assay [1] was < 100 nM. Moreover, in assay [2], the EC50 was < 100 nM.

Regarding `Cc1cc(CN[C@H]2CCCCC/C=C\[C@@H]3C[C@@]3(C(=O)NS(=O)(=O)C3CC3)NC(=O)[C@@H]3C[C@@H](OC(=O)N4Cc5cccc(F)c5C4)CN3C2=O)oc1C` [Compound 915], the IC50 in assay [1] is < 100 nM. In addition, the EC50 in assay [2] was < 100 nM.

For `O=C1N[C@]2(C(=O)NS(=O)(=O)C3CC3)C[C@H]2/C=C\CCCCC[C@H](NCC2CCCO2)C(=O)N2C[C@H](OC(=O)N3Cc4cccc(F)c4C3)C[C@@H]12` (stereo partly shown) [Compound 916], the IC50 in assay [1] is < 100 nM. Further, the EC50 in assay [2] was < 1000 nM.

Regarding `O=C1N[C@]2(C(=O)NS(=O)(=O)C3CC3)C[C@H]2/C=C\CCCCC[C@H](NCc2ccccc2C(F)(F)F)C(=O)N2C[C@H](OC(=O)N3Cc4cccc(F)c4C3)C[C@@H]12` [Compound 917], the IC50 in assay [1] was < 100 nM. Besides, the EC50 in assay [2] was < 100 nM.

For the compound `Cc1cccc(C)c1CN[C@H]1CCCCC/C=C\[C@@H]2C[C@@]2(C(=O)NS(=O)(=O)C2CC2)NC(=O)[C@@H]2C[C@@H](OC(=O)N3Cc4cccc(F)c4C3)CN2C1=O` [Compound 918], the half-maximal inhibitory concentration (IC50) in assay [1] is < 100 nM. In addition, in assay [2], the EC50 is < 1000 nM.

For the compound `O=C1N[C@]2(C(=O)NS(=O)(=O)C3CC3)C[C@H]2/C=C\CCCCC[C@H](NC2CCCC2)C(=O)N2C[C@H](OC(=O)N3Cc4cccc(F)c4C3)C[C@@H]12` [Compound 919], the IC50 in assay [1] is < 100 nM. For the same compound, the EC50 in assay [2] is < 10000 nM.

Consider `CC(C)(C)CN[C@H]1CCCCC/C=C\[C@@H]2C[C@@]2(C(=O)NS(=O)(=O)C2CC2)NC(=O)[C@@H]2C[C@@H](OC(=O)N3Cc4cccc(F)c4C3)CN2C1=O` [Compound 920], for which the IC50 in assay [1] is < 100 nM. Besides, the concentration for a half-maximal effect (EC50) in assay [2] was < 100 nM.

On to `O=C1N[C@]2(C(=O)NS(=O)(=O)C3CC3)C[C@H]2/C=C\CCCCC[C@H](NCC(F)(F)F)C(=O)N2C[C@H](OC(=O)N3Cc4cccc(F)c4C3)C[C@@H]12` [Compound 921], for which, in assay [1], the IC50 was < 100 nM. In addition, in assay [2], the EC50 was < 1000 nM.

Consider `CN(C)C(=S)N[C@H]1CCCCC/C=C\[C@@H]2C[C@@]2(C(=O)NS(=O)(=O)C2CC2)NC(=O)[C@@H]2C[C@@H](OC(=O)N3Cc4cccc(F)c4C3)CN2C1=O` [Compound 922], for which the IC50 in assay [1] is < 100 nM. Also, the EC50 in assay [2] was < 1000 nM.

`NC(=S)N[C@H]1CCCCC/C=C\[C@@H]2C[C@@]2(C(=O)NS(=O)(=O)C2CC2)NC(=O)[C@@H]2C[C@@H](OC(=O)N3Cc4cccc(F)c4C3)CN2C1=O` [Compound 923]: the IC50 in assay [1] was < 100 nM. Further, in assay [2], the EC50 was < 1000 nM.

Turning to `O=C1N[C@]2(C(=O)NS(=O)(=O)C3CC3)C[C@H]2/C=C\CCCCC[C@H](Nc2nccs2)C(=O)N2C[C@H](OC(=O)N3Cc4cccc(F)c4C3)C[C@@H]12` [Compound 924], the IC50 in assay [1] was < 100 nM. Also, the EC50 in assay [2] was < 100 nM.

For `CC(C)(C)c1csc(N[C@H]2CCCCC/C=C\[C@@H]3C[C@@]3(C(=O)NS(=O)(=O)C3CC3)NC(=O)[C@@H]3C[C@@H](OC(=O)N4Cc5cccc(F)c5C4)CN3C2=O)n1` [Compound 925], the IC50 in assay [1] was < 100 nM. Further, the EC50 in assay [2] was < 100 nM.

Turning to `O=C1N[C@]2(C(=O)NS(=O)(=O)C3CC3)C[C@H]2/C=C\CCCCC[C@H](Nc2nc(C(F)(F)F)cs2)C(=O)N2C[C@H](OC(=O)N3Cc4cccc(F)c4C3)C[C@@H]12` [Compound 926], in assay [1], the IC50 was < 100 nM. Further, the EC50 in assay [2] was < 100 nM.

In the case of `O=C1N[C@]2(C(=O)NS(=O)(=O)C3CC3)C[C@H]2/C=C\CCCCC[C@H](Nc2nc(-c3ccccc3)cs2)C(=O)N2C[C@H](OC(=O)N3Cc4cccc(F)c4C3)C[C@@H]12` [Compound 927, (2R,6S,13aS,14aR,16aS,Z)-14a-(cyclopropylsulfonylcarbamoyl)-5,16-dioxo-6-(4-phenylthiazol-2-ylamino)-1,2,3,5,6,7,8,9,10,11,13a,14,14a,15,16,16a-hexadecahydrocyclopropa[e]pyrrolo[1,2-a][1,4]diazacyclopentadecin-2-yl 4-fluoroisoindoline-2-carboxylate], in assay [1], the IC50 was < 100 nM. For the same compound, the EC50 in assay [2] was < 100 nM.

In the case of `Cc1sc(N[C@H]2CCCCC/C=C\[C@@H]3C[C@@]3(C(=O)NS(=O)(=O)C3CC3)NC(=O)[C@@H]3C[C@@H](OC(=O)N4Cc5cccc(F)c5C4)CN3C2=O)nc1-c1ccccc1` [Compound 928], in assay [1], the IC50 was < 100 nM. For the same compound, the EC50 in assay [2] is < 100 nM.

With `O=C1N[C@]2(C(=O)NS(=O)(=O)C3CC3)C[C@H]2/C=C\CCCCC[C@H](Nc2nc(-c3ccccc3)cs2)C(=O)N2C[C@H](OC(=O)N3Cc4cccc(Cl)c4C3)C[C@@H]12` [Compound 929], in assay [1], the IC50 was < 100 nM. Moreover, the EC50 in assay [2] is < 100 nM.

For the compound `CC(C)(C)OC(=O)N[C@H]1CCC(F)(F)CC/C=C\[C@@H]2C[C@@]2(C(=O)O)NC(=O)[C@@H]2C[C@@H](OC(=O)N3Cc4cccc(F)c4C3)CN2C1=O` [Compound 1001], the IC50 in assay [1] is < 100 nM. Besides, the EC50 in assay [2] is < 10000 nM.

Turning to `CC(C)(C)OC(=O)N[C@H]1CCC(F)(F)CC/C=C\[C@@H]2C[C@@]2(C(=O)NS(=O)(=O)C2CC2)NC(=O)[C@@H]2C[C@@H](OC(=O)N3Cc4cccc(F)c4C3)CN2C1=O` [Compound 1002], the IC50 in assay [1] is < 100 nM. Moreover, in assay [2], the EC50 is < 100 nM.

As to `N[C@H]1CCC(F)(F)CC/C=C\[C@@H]2C[C@@]2(C(=O)NS(=O)(=O)C2CC2)NC(=O)[C@@H]2C[C@@H](OC(=O)N3Cc4cccc(F)c4C3)CN2C1=O` [Compound 1003], the IC50 in assay [1] was < 100 nM. In addition, the 50% effective concentration (EC50) in assay [2] is < 1000 nM.

With `O=C(N[C@H]1CCC(F)(F)CC/C=C\[C@@H]2C[C@@]2(C(=O)NS(=O)(=O)C2CC2)NC(=O)[C@@H]2C[C@@H](OC(=O)N3Cc4cccc(F)c4C3)CN2C1=O)OC1CCCC1` [Compound 1004], in assay [1], the IC50 is < 100 nM. Further, the EC50 in assay [2] is < 100 nM.

For the compound `CC(C)(C)OC(=O)N[C@H]1CCCC(F)(F)C/C=C\[C@@H]2C[C@@]2(C(=O)O)NC(=O)[C@@H]2C[C@@H](OC(=O)N3Cc4cccc(F)c4C3)CN2C1=O` [Compound 1006, (2R,6S,13aS,14aR,16aS,Z)-6-(tert-butoxycarbonylamino)-9,9-difluoro-2-(4-fluoroisoindoline-2-carbonyloxy)-5,16-dioxo-1,2,3,5,6,7,8,9,10,11,13a,14,14a,15,16,16a-hexadecahydrocyclopropa(e)prrolo[1,2-a][1,4]diazacyclopentadecine-14a-carboxylic acid], the IC50 in assay [1] is < 100 nM. Further, the EC50 in assay [2] was < 10000 nM.

On to `CC(C)(C)OC(=O)N[C@H]1CCC(F)(F)CC/C=C\[C@@H]2C[C@@]2(C(=O)O)NC(=O)[C@@H]2C[C@@H](OC(=O)N3Cc4ccccc4C3)CN2C1=O` [Compound 1007], for which the IC50 in assay [1] is < 100 nM. For the same compound, the EC50 in assay [2] was < 10000 nM.

For the compound `CC(C)(C)OC(=O)N[C@H]1CCCC(F)(F)C/C=C\[C@@H]2C[C@@]2(C(=O)NS(=O)(=O)C2CC2)NC(=O)[C@@H]2C[C@@H](OC(=O)N3Cc4cccc(F)c4C3)CN2C1=O` [Compound 1008, (2R,6S,13aS,14aR,16aS,Z)-6-(tert-butoxycarbonylamino)-14a-(cyclopropylsulfonylcarbamoyl)-9,9-difluoro-5,16-dioxo-1,2,3,5,6,7,8,9,10,11,13a,14,14a,15,16,16a-hexadecahydrocyclopropa(e)prrolo[1,2-a][1,4]diazacyclopentadecine 2-yl 4-fluoroisoindoline-2-carboxylate], in assay [1], the IC50 is < 100 nM. Moreover, the half-maximal effective concentration (EC50) in assay [2] was < 100 nM.
